Assay results published in patent publication US6420330B1, “Use of quaternary carboxylic acid alkanolamine ester salts as microbicide agents” (Cognis Deutschland GmbH, priority 1997, dated 2002).

Each molecule was assayed on Candida albicans ATCC 10231 (assay: DGHM suspension test, microbicidal activity). Details: CU 50 mg/l; contact time 5 mins.
Assay type: cell-based
Experimental: (§1) The microbicidal activity of the quanterary carboxylic acid alkanolamine ester salts used in accordance with the invention was tested against the following selected test germs:
(§2) The effectiveness of the compound to be tested was determined by the suspension test in accordance with the guidelines of the Deutsche Gesellschaft for Hygiene and Mikrobiologie (DGHM). Test solutions containing quatemary carboxylic acid alkanolamine ester salts in the quantities shown in the Tables of 50, 100, 200, 400 and 800 mg/l were prepared using water with a hardness of 17° dH and optionally isopropanol.
(§3) At room temperatures, quantities of 0.1 ml test germ suspension were pipetted into test tubes containing 10 ml of the test solutions described above and mixed. After various contact times of 5, 15, 30 and 60 minutes, 1 ml of material was taken from the test tubes by pipette and transferred to 9 ml inactivator solution (inactivators: 3.0% Tween, 0.3% lecithin, 0.1% histidine). After in activation for at least 5 and at most 30 minutes, the living germ count was determined by plating out onto casein peptone-soybean flour peptone (CaSo)-agar plates. Using a spiral plater, the inactivating mixture was directly plated out onto CaSo-agar. The samples were incubated for 24 to 72 hours at 37° C. and macroscopically evaluated for growth. The destruction time or the residual germ count was determined in this way. The germ count of an unchallenged water control is related to the germ count of the inactivated test solution taking the dilution into account. The higher the value, the better the microbicidal effect. The symbol < means that the logarithmic reductuon factor is below the indicated value or, in the case of the symbol >, above the indicated value. The abbreviation CU stands for “concentration used”.

Compound | logarithmic reduction factor
CCCCCCCCCC(=O)OCC[N+](C)(CCO)CCOC(=O)CCCCCCCCC.COS(=O)(=O)[O-] [Example 6, methyl triethanolammonium dicapric acid ester methosulfate] | <0.87

Same assay, conditions: CU 50 mg/l; contact time 15 mins.

Compound | logarithmic reduction factor
CCCCCCCCCC(=O)OCC[N+](C)(CCO)CCOC(=O)CCCCCCCCC.COS(=O)(=O)[O-] [Example 6, methyl triethanolammonium dicapric acid ester methosulfate] | 1.64

Same assay, conditions: CU 50 mg/l; contact time 30 mins.

Compound | logarithmic reduction factor
CCCCCCCCCC(=O)OCC[N+](C)(CCO)CCOC(=O)CCCCCCCCC.COS(=O)(=O)[O-] [Example 6, methyl triethanolammonium dicapric acid ester methosulfate] | 1.93

Same assay, conditions: CU 50 mg/l; contact time 60 mins.

Compound | logarithmic reduction factor
CCCCCCCCCC(=O)OCC[N+](C)(CCO)CCOC(=O)CCCCCCCCC.COS(=O)(=O)[O-] [Example 6, methyl triethanolammonium dicapric acid ester methosulfate] | 2.62

Same assay, conditions: CU 100 mg/l; contact time 5 mins.

Compound | logarithmic reduction factor
CCCCCCCCCC(=O)OCC[N+](C)(CCO)CCOC(=O)CCCCCCCCC.COS(=O)(=O)[O-] [Example 6, methyl triethanolammonium dicapric acid ester methosulfate] | 1.27

Same assay, conditions: CU 100 mg/l; contact time 15 mins.

Compound | logarithmic reduction factor
CCCCCCCCCC(=O)OCC[N+](C)(CCO)CCOC(=O)CCCCCCCCC.COS(=O)(=O)[O-] [Example 6, methyl triethanolammonium dicapric acid ester methosulfate] | 3.03

Same assay, conditions: CU 100 mg/l; contact time 30 mins.

Compound | logarithmic reduction factor
CCCCCCCCCC(=O)OCC[N+](C)(CCO)CCOC(=O)CCCCCCCCC.COS(=O)(=O)[O-] [Example 6, methyl triethanolammonium dicapric acid ester methosulfate] | 3.75

Same assay, conditions: CU 100 mg/l; contact time 60 mins.

Compound | logarithmic reduction factor
CCCCCCCCCC(=O)OCC[N+](C)(CCO)CCOC(=O)CCCCCCCCC.COS(=O)(=O)[O-] [Example 6, methyl triethanolammonium dicapric acid ester methosulfate] | 4.15

Same assay, conditions: CU 200 mg/l; contact time 5 mins.

Compound | logarithmic reduction factor
CCCCCCCCCC(=O)OCC[N+](C)(CCO)CCOC(=O)CCCCCCCCC.COS(=O)(=O)[O-] [Example 6, methyl triethanolammonium dicapric acid ester methosulfate] | 1.24

Same assay, conditions: CU 200 mg/l; contact time 15 mins.

Compound | logarithmic reduction factor
CCCCCCCCCC(=O)OCC[N+](C)(CCO)CCOC(=O)CCCCCCCCC.COS(=O)(=O)[O-] [Example 6, methyl triethanolammonium dicapric acid ester methosulfate] | 3.66

Same assay, conditions: CU 200 mg/l; contact time 30 mins.

Compound | logarithmic reduction factor
CCCCCCCCCC(=O)OCC[N+](C)(CCO)CCOC(=O)CCCCCCCCC.COS(=O)(=O)[O-] [Example 6, methyl triethanolammonium dicapric acid ester methosulfate] | >4.78

Same assay, conditions: CU 200 mg/l; contact time 60 mins.

Compound | logarithmic reduction factor
CCCCCCCCCC(=O)OCC[N+](C)(CCO)CCOC(=O)CCCCCCCCC.COS(=O)(=O)[O-] [Example 6, methyl triethanolammonium dicapric acid ester methosulfate] | >4.67

Same assay, conditions: CU 400 mg/l; contact time 5 mins.

Compound | logarithmic reduction factor
CCCCCCCCCC(=O)OCC[N+](C)(CCO)CCOC(=O)CCCCCCCCC.COS(=O)(=O)[O-] [Example 6, methyl triethanolammonium dicapric acid ester methosulfate] | 1.38

Same assay, conditions: CU 400 mg/l; contact time 15 mins.

Compound | logarithmic reduction factor
CCCCCCCCCC(=O)OCC[N+](C)(CCO)CCOC(=O)CCCCCCCCC.COS(=O)(=O)[O-] [Example 6, methyl triethanolammonium dicapric acid ester methosulfate] | 3.51

Same assay, conditions: CU 400 mg/l; contact time 30 mins.

Compound | logarithmic reduction factor
CCCCCCCCCC(=O)OCC[N+](C)(CCO)CCOC(=O)CCCCCCCCC.COS(=O)(=O)[O-] [Example 6, methyl triethanolammonium dicapric acid ester methosulfate] | >4.78

Same assay, conditions: CU 400 mg/l; contact time 60 mins.

Compound | logarithmic reduction factor
CCCCCCCCCC(=O)OCC[N+](C)(CCO)CCOC(=O)CCCCCCCCC.COS(=O)(=O)[O-] [Example 6, methyl triethanolammonium dicapric acid ester methosulfate] | >4.67

Same assay, conditions: CU 800 mg/l; contact time 5 mins.

Compound | logarithmic reduction factor
CCCCCCCCCC(=O)OCC[N+](C)(CCO)CCOC(=O)CCCCCCCCC.COS(=O)(=O)[O-] [Example 6, methyl triethanolammonium dicapric acid ester methosulfate] | 1.33

Same assay, conditions: CU 800 mg/l; contact time 15 mins.

Compound | logarithmic reduction factor
CCCCCCCCCC(=O)OCC[N+](C)(CCO)CCOC(=O)CCCCCCCCC.COS(=O)(=O)[O-] [Example 6, methyl triethanolammonium dicapric acid ester methosulfate] | >4.87

Same assay, conditions: CU 800 mg/l; contact time 30 mins.

Compound | logarithmic reduction factor
CCCCCCCCCC(=O)OCC[N+](C)(CCO)CCOC(=O)CCCCCCCCC.COS(=O)(=O)[O-] [Example 6, methyl triethanolammonium dicapric acid ester methosulfate] | >4.78

Same assay, conditions: CU 800 mg/l; contact time 60 mins.

Compound | logarithmic reduction factor
CCCCCCCCCC(=O)OCC[N+](C)(CCO)CCOC(=O)CCCCCCCCC.COS(=O)(=O)[O-] [Example 6, methyl triethanolammonium dicapric acid ester methosulfate] | >4.67

These molecules were tested on Pseudomonas aeruginosa ATCC 15442 (assay: DGHM suspension test, microbicidal activity). Details: CU 50 mg/l; contact time 5 mins.
Assay type: cell-based
Experimental: as §1, §2, §3

Compound | logarithmic reduction factor
CCCCCCCCCC(=O)OCC[N+](C)(CCO)CCOC(=O)CCCCCCCCC.COS(=O)(=O)[O-] [Example 6, methyl triethanolammonium dicapric acid ester methosulfate] | <1.85

Same assay, conditions: CU 50 mg/l; contact time 15 mins.

Compound | logarithmic reduction factor
CCCCCCCCCC(=O)OCC[N+](C)(CCO)CCOC(=O)CCCCCCCCC.COS(=O)(=O)[O-] [Example 6, methyl triethanolammonium dicapric acid ester methosulfate] | <1.79

Same assay, conditions: CU 50 mg/l; contact time 30 mins.

Compound | logarithmic reduction factor
CCCCCCCCCC(=O)OCC[N+](C)(CCO)CCOC(=O)CCCCCCCCC.COS(=O)(=O)[O-] [Example 6, methyl triethanolammonium dicapric acid ester methosulfate] | <1.71

Same assay, conditions: CU 50 mg/l; contact time 60 mins.

Compound | logarithmic reduction factor
CCCCCCCCCC(=O)OCC[N+](C)(CCO)CCOC(=O)CCCCCCCCC.COS(=O)(=O)[O-] [Example 6, methyl triethanolammonium dicapric acid ester methosulfate] | <1.81

Same assay, conditions: CU 100 mg/l; contact time 5 mins.

Compound | logarithmic reduction factor
CCCCCCCCCC(=O)OCC[N+](C)(CCO)CCOC(=O)CCCCCCCCC.COS(=O)(=O)[O-] [Example 6, methyl triethanolammonium dicapric acid ester methosulfate] | <1.85

Same assay, conditions: CU 100 mg/l; contact time 15 mins.

Compound | logarithmic reduction factor
CCCCCCCCCC(=O)OCC[N+](C)(CCO)CCOC(=O)CCCCCCCCC.COS(=O)(=O)[O-] [Example 6, methyl triethanolammonium dicapric acid ester methosulfate] | <1.79

Same assay, conditions: CU 100 mg/l; contact time 30 mins.

Compound | logarithmic reduction factor
CCCCCCCCCC(=O)OCC[N+](C)(CCO)CCOC(=O)CCCCCCCCC.COS(=O)(=O)[O-] [Example 6, methyl triethanolammonium dicapric acid ester methosulfate] | <1.71

Same assay, conditions: CU 100 mg/l; contact time 60 mins.

Compound | logarithmic reduction factor
CCCCCCCCCC(=O)OCC[N+](C)(CCO)CCOC(=O)CCCCCCCCC.COS(=O)(=O)[O-] [Example 6, methyl triethanolammonium dicapric acid ester methosulfate] | 3.19

Same assay, conditions: CU 200 mg/l; contact time 5 mins.

Compound | logarithmic reduction factor
CCCCCCCCCC(=O)OCC[N+](C)(CCO)CCOC(=O)CCCCCCCCC.COS(=O)(=O)[O-] [Example 6, methyl triethanolammonium dicapric acid ester methosulfate] | <1.85

Same assay, conditions: CU 200 mg/l; contact time 15 mins.

Compound | logarithmic reduction factor
CCCCCCCCCC(=O)OCC[N+](C)(CCO)CCOC(=O)CCCCCCCCC.COS(=O)(=O)[O-] [Example 6, methyl triethanolammonium dicapric acid ester methosulfate] | <1.79
